Measured values as given in patent US20060247258A1, “Use of levocetirizine for the treatment of persistent allergic rhinitis” (UCB Farchim S.A., priority 2002, published 2006).
Counter-ions that a name gives are not always drawn.

Experiments:
Format in all cases: in vivo, adult patients
[1] = system: persistent allergic rhinitis; assay: Clinical study in persistent allergic rhinitis: safety of long-term treatment; details: 5 mg once per day; 6 month treatment
Excerpt: The aim of the study relative to the clinical effect of levocetirizine dihydrochloride was to establish on the intention to treat (ITT population) whether a 6 month levocetirizine dihydrochloride treatment can improve the quality of life and clinical symptoms from adult patients suffering from persistent allergic rhinitis, when compared to placebo. For clinical symptoms, it was considered that a 1 point score reduction is clinically relevant. For health-related quality of life, it was considered that a 0.36 point score reduction is relevant. Secondary parameters of efficacy included different durations of treatment, different symptoms, different quality of life questionnaires, the incidence of co-morbidities suspected to be linked to allergic rhinitis and pharmaco-economic variables. The safety of this long-term treatment with levocetirizine dihydrochloride has also been evaluated.
At each of the eight visits, diary book entries (T5SS, RQLQ, SF-36, indirect cost pharmaco-economic parameters, concomitant medication, outpatient consultations and adverse events) were verified and transferred into the Clinical Record Form and direct cost pharmaco-economic parameters were recorded. Patients underwent a physical examination, including the measurement of vital signs. […]
Adverse events were recorded by the patients on diary cards and discussed with the investigator at each visit. […]

[2] = system: persistent allergic rhinitis; assay: Clinical study in persistent allergic rhinitis: Total 5 Symptoms Score (T5SS)
Excerpt: (§1) For clinical symptoms, it was considered that a 1 point score reduction is clinically relevant. For health-related quality of life, it was considered that a 0.36 point score reduction is relevant. Secondary parameters of efficacy included different durations of treatment, different symptoms, different quality of life questionnaires, the incidence of co-morbidities suspected to be linked to allergic rhinitis and pharmaco-economic variables.
(§2) The target population of this example consisted of adults aged more than 18 years suffering from persistent allergic rhinitis [WHO Initiative on Allergic Rhinitis and its Impact on Asthma (ARIA), 2000, pages S147-S149]. To be enrolled, the subjects needed to have sufficient rhinitis symptoms during the selection period. Excluded were patients with ENT or eye infection during the 2-weeks preceding initial visit.
(§3) The study was a prospective, randomized, double blind, parallel group, and placebo-controlled study with levocetirizine dihydrochloride.
(§4) The severity of clinical symptoms was rated by the T5SS (sneezing, rhinorrhea, nasal pruritus, ocular pruritus and nasal congestion) evaluated each by a score from 0 to 3. The impact on health related quality of life was measured using the Rhinoconjunctivitis Quality of Life Questionnaire (RQLQ) (E. JUNIPER and G. H. GUYAIT, Development and testing of a new measure of health status for clinical trials in rhinoconjunctivitis, Clinical and Experimental Allergy 1991; 21:77-83; E. JUNIPER, Measuring Health Related Quality of Life in rhinitis, J. Allergy Clin. Immunol. 1997; 99:S742-9).
(§5) Study treatment lasted for 6 months. After the treatment period, patients entered a 1-week follow-up period.
(§6) The primary end-point for efficacy was a decrease of the T5SS over the first 4 weeks of at least 1 unit of score. The primary end-point for quality of life was a decrease of RQLQ after 4 weeks of at least 0.36 unit of the total score.
(§7) Secondary parameters of efficacy included the mean T5SS, the RQLQ and the SF-36 questionnaire at the different time points of the study, and the incidence and the duration of rescue medication over 6 months.
(§8) Oral tablets of levocetirizine dihydrochloride (5 mg) and matching placebo, similar in appearance, shape and taste were used. The recommended study dosage was 1 tablet per day.

[3] = system: persistent allergic rhinitis; assay: Clinical study in persistent allergic rhinitis: individual rhinitis symptom scores (nasal congestion, sneezing, rhinorrhea, nasal pruritus, ocular pruritus); details: for Effect on nasal congestion / nasal obstruction (in words): long term treatment
Excerpt: as §1, §2, §3, §4, §5
Exploratory parameters of efficacy included the mean of each individual rhinitis score, each RQLQ domain and each scale of the SF-36 questionnaire at the different time points of the study, the Global Evaluation Scale after 4 weeks and 6 months, the incidence of co-morbidities suspected to be linked to allergic rhinitis and the pharmaco-economic direct and indirect costs over 6 months.
as §8

[4] = system: persistent allergic rhinitis; assay: Clinical study in persistent allergic rhinitis: Rhinoconjunctivitis Quality of Life Questionnaire (RQLQ)
Excerpt: as §1, §2, §3, §4, §5, §6, §7, §8
Sample size was based on 40% relative improvement over placebo in the RQLQ questionnaire, assuming an improvement from baseline for placebo of 0.9. For this questionnaire this corresponds to a difference of 0.36 vs. placebo.

[5] = 5 mg once per day, 6 month treatment
[6] = 5 mg oral tablet once per day, over the first four weeks of treatment, ITT population
[7] = 5 mg, 3 months, evaluated over the 24 hours, ITT population
[8] = 5 mg, 4.5 months, evaluated over the 24 hours, ITT population
[9] = 5 mg, 6 months, evaluated over the 24 hours, ITT population
[10] = 5 mg, First 4 weeks, evaluated over the 24 hours, ITT population
[11] = 5 mg, Week 1, evaluated over the 24 hours, ITT population
[12] = 5 mg oral tablet once per day, after first 4 weeks of treatment, ITT population

`O=C(O)COCCN1CCN([C@H](c2ccccc2)c2ccc(Cl)cc2)CC1` [Lctz, levocetirizine dihydrochloride] was tested, and the “Safety of long-term administration” value [1] was “did not involve particular safety concerns”, the “Duration of effect on rhinitis” value [2, 5] was “has an effect on rhinitis up to 6 months” and the “Tachyphylaxis (need to adjust the dosing schedule)” value ([2]; 5 mg once per day, during 6 months) was “lack of tachyphylaxis”. For the same compound, the “Mean T5SS, Adjusted mean (adjusted for baseline score and country)” value [2, 6] was 5.43, the “Mean T5SS, Mean (SD)” value [2, 6] was 5.53 (2.52) and the “Mean T5SS, Diff. vs. placebo (95% CI), placebo minus Lctz 5 mg” value ([2]; 5 mg oral tablet once per day, over the first four weeks of treatment, ITT population, dihydrochloride) was 1.14. The “Improvement of sneezing, rhinorrhea, nasal pruritus and ocular pruritus” value ([3]; 5 mg once per day, at all time points, vs. placebo) was “statistically significant improvement”, the “Effect on nasal congestion / nasal obstruction (in words)” value ([3]; 5 mg once per day, listed as Levocetirizine, dihydrochloride) was “active on nasal obstruction after a long term treatment (equal or more than 3 months)” and the “Effect on nasal congestion / nasal obstruction (in words)” value ([3]; 5 mg once per day, listed as levocetirizine dihydrochloride, dihydrochloride) was “has an effect on nasal congestion after 3 months”. The “Nasal congestion symptoms, Adjusted Mean” value [3, 7] was 1.16, the “Nasal congestion symptoms, Mean (SD)” value [3, 7] was 1.22 (0.78) and the “Nasal congestion symptoms, Diff. vs. (95% CI), placebo minus Lctz” value ([3]; 5 mg, 3 months, evaluated over the 24 hours, ITT population, dihydrochloride) was 0.15. For the same compound, the “Nasal congestion symptoms, Adjusted Mean” value [3, 8] was 1.11, the “Nasal congestion symptoms, Mean (SD)” value [3, 8] was 1.17 (0.77) and the “Nasal congestion symptoms, Adjusted Mean” value [3, 9] was 1.08. The “Nasal congestion symptoms, Mean (SD)” value [3, 9] was 1.13 (0.76), the “Nasal congestion symptoms, Adjusted Mean” value [3, 10] was 1.40 and the “Nasal congestion symptoms, Mean (SD)” value [3, 10] was 1.44 (0.78). The “Nasal congestion symptoms, Adjusted Mean” value [3, 11] was 1.58, the “Nasal congestion symptoms, Mean (SD)” value [3, 11] was 1.61 (0.83) and the “Duration of effect on quality of life” value [4, 5] was “has an effect on quality of life up to 6 months”. The “Change from baseline of the RQLQ Overall Score, Adjusted Mean (adjusted for baseline score and country)” value [4, 12] was −1.49, the “Change from baseline of the RQLQ Overall Score, Mean” value [4, 12] was −1.50 and the “Change from baseline of the RQLQ Overall Score, Diff. vs. placebo (95% CI), placebo minus Lctz 5 mg” value ([4]; 5 mg oral tablet once per day, after first 4 weeks of treatment, ITT population, dihydrochloride) was 0.48.
